This is an account of results in patent US20200055871A1, “ACTIVATORS OF THE RETINOIC ACID INDUCIBLE GENE "RIG-I" PATHWAY AND METHODS OF USE THEREOF” (Kineta Immuno-Oncology LLC, priority 2018, published 2020).

For test [1], the system named is IRF3 signaling pathway in THP1-Lucia™ ISG cells. The test is described as follows: THP1-Lucia ISG reporter assay: induction of IRF3-dependent gene expression (secreted luciferase). The test is classed as cell-based, human. The following applies: 10 μM compound, PMA-differentiated cells, 18 h after stimulation. Put shortly:
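PMA-differentiated THP-1 reporter cells (ISRE/ISG54 promoter driving secreted luciferase), plus CRISPR IRF3−/− line, treated with compounds at 5–20 μM (mostly 10 μM). Luciferase measured 18 h later; values are fold increase over untreated background, binned from <2.4 to ≥40.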
Background: In a reporter assay the amount or activity of a reporter protein is the signal.

Test [2] has as its system IRF3-deficient THP1-Lucia™ ISG IRF3−/− cells. The test is described as follows: THP1-Lucia ISG IRF3−/− reporter assay (IRF3-deficient control cells). Type of test: cell-based, human. The following applies: compound 5 to 20 μM, 18 h. The procedure:
The promoter was comprised of five IFN-stimulated response elements (ISRE) fused to an ISG54 minimal promoter which is unresponsive to NF-kB or AP-1 pathways. […] The IRF3-deficient THP1-Lucia™ ISG IRF3−/−reporter cell line was generated by CRISPR technology from the parent THP1-Lucia™ ISG reporter cell line.
THP1-Lucia™ ISG cells and IRF3-deficient THP1-Lucia™ ISG IRF3−/−cells were differentiated with PMA (100 ng/ml) and stimulated with compounds at the indicated concentrations (5 to 20 μM), positive control, or not treated (background). Luciferase secretion was quantified using the QUANTI-Luc luciferase assay system (InvivoGen) 18 h after stimulation. Data are shown as fold increase luciferase activity over background in Table 7 and represent the IRF3-dependent ISG54 promoter activity by the THP1-Lucia™ ISG cells in response to compounds. […] The fold increase of compounds (10 μM, *20 μM, **5 μM) induced IRF3 dependent luciferase activity is indicated as follows: “≠” indicates less than 2.4 fold increase; “+” indicates a 2.4-4.9 fold increase; “++” indicates a 5-9.9 fold increase; “+++” indicates a 10-19 fold increase; “++++” indicates a 20-39 fold increase; “+++++” indicates greater than or equal to 40 fold increase.

Test [3] deals with murine CT26 colon carcinoma cells. The test is described as follows: RIG-I dependent CXCL10 secretion by CT26 cells (ELISA). The test is classed as cell-based. The following applies: 10 μM compound, supernatant 24 h after stimulation. Put shortly: (§1)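 CT26 murine colon carcinoma cells, parental or CRISPR RIG-I−/−, seeded and grown 24 hr at 37° C, then treated with compounds at 10 μM, or at 5 or 20 μM for some. Secreted CXCL10 measured by ELISA in supernatants 24 h after treatment and reported in pg/mL bands.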
A general note: ELISA stands for enzyme-linked immunosorbent assay.

The subject of test [4] is RIG-I deficient CT26 RIG-I−/− cells. The test is described as follows: CXCL10 secretion by RIG-I deficient CT26 RIG-I−/− cells (ELISA). Note: key: −: about 0 pg/mL of CXCL10, or below the level of quantitation. The following applies: compound 5 to 20 μM, 24 h. Type of test: cell-based, murine. The procedure, abridged:
as §1

Test [5] relates to murine CT26 colon carcinoma cells. Nature of the test: Compound-induced immunogenic cell death: apoptosis (Annexin V) and calreticulin translocation by flow cytometry. The test is classed as cell-based. The following applies: 18 h after treatment, dose titration, FIG. 1. Here is the method: To determine if the RIG-I agonist compounds induce immunogenic cell death in cancer cells, induction of apoptosis and the translocation of calreticulin (CRT) to the cell surface in murine CT26 colon carcinoma cells were evaluated. The translocation of CRT occurs as part of a specific RIG-I dependent danger-signaling system, and the presence of CRT on the cell membrane promotes tumor antigen uptake by the dendritic cells and leads to the induction of an antigen-specific T cell response
The induction of apoptosis and the CRT translocation were measured by flow cytometry. […] Cells were harvested 18 h after treatment and then prepared for flow cytometry using an Annexin V staining kit (Biolegend) for quantification of apoptosis, an anti-CRT antibody (Abgent) for calreticulin translocation, and the Live/Dead-Violet staining kit (Thermofisher) for cell viability. Induction of apoptosis and translocation of calreticulin (CRT) to cell surface by live cells was determined by tri-color flow cytometry using FITC-labeled Annexin V, Live/Dead-iolet (LDV), and APC-anti-CRT. Apoptotic cells were defined as Annexin V^+ and calreticulin translocation to cell surface was quantified by mean fluorescent intensity (MFI) of calreticulin^+ live cells (CRT^+ LDV^−). […]
Background: In flow cytometry, cells or beads pass a laser one at a time.

“N-{5,12-dithia-3-azatricyclo[7.3.0.0^2,^6]dodeca-1,3,6,8,10-pentaen-11-yl}-3-[4-(morpholin-4-yl)butoxy]-[1,1′-biphenyl]-4-carboxamide [Example 62]”: the “fold increase of IRF3-dependent luciferase activity over background, THP1 ISG” value in test [1] is listed as “+++ (a 10-19 fold increase)”. In addition, in test [2], the “fold increase of luciferase activity, THP1 ISG IRF3−/−” value was “− (less than 0.5 fold above baseline was considered below the level of quantitation)”. In test [3], the “CXCL10 secretion, CT26” value is “++++ (800 to 1599 pg/mL)”. Moreover, the “CXCL10 secretion, CT26 RIG-I−/−” value in test [4] is “−”. In addition, the “induction of immunogenic cell death (apoptosis, calreticulin translocation to cell surface)” value in test [5] is recorded as “induction of immunogenic cell death”.
